Entries after “also recorded” stand apart in the source; their conditions may differ.
How the values were obtained:
[1] = target: T1, NIS (Homo sapiens, UniProt Q92911); experiment: Perchlorate inhibition of NIS-mediated radioiodide uptake in FaDu cells; type: cell-based; design: The full-length hNIS cDNA was digested from this plasmid and ligated into the pacAd5 CMV K—N pA shuttle vector; expressed in transfected cells; conditions: 1 mM sodium perchlorate added before radioiodide, Ad-hNIS-transduced FaDu cells
T1 sequence (Q92911 1-643): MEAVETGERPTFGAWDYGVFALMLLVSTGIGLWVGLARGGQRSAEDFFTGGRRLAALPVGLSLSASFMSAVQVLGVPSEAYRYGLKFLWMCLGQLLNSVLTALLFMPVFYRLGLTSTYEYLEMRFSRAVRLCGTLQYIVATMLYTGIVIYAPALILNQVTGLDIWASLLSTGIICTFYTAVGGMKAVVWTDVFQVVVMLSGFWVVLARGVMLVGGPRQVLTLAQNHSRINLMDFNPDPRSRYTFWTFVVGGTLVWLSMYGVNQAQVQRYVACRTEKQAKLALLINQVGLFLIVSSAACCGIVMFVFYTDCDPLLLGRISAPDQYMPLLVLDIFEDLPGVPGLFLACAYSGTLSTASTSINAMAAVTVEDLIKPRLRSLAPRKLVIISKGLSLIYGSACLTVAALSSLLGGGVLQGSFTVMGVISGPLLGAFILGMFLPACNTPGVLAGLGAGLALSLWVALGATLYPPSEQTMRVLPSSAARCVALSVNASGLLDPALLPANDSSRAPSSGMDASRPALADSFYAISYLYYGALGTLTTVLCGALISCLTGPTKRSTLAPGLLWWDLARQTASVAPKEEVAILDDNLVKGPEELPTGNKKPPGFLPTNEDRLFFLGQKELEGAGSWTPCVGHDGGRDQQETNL
Method: Radioiodide Uptake and Efflux. Cells (2.5×10^5) were seeded in each well of 12-well plates on day 1. Twelve hours later, 40 multiplicity of infection (MOI; the ratio of infectious viral particles to cells) of adenovirus was added to each well. Twenty-four hours later, 2 μCi of sodium [^125I] iodide (New England Nuclear, North Billerica, Mass.) was added to each well, and the plates were incubated for 1 hour at 37° C. […] Medium was then removed, and cells were washed once with PBS. Plates were then exposed overnight on a phosphor imaging screen, and signal intensity was determined with a Typhoon 9400 imager (Amersham Biosciences, Buckinghamshire, England). Signal intensity was compared with that of standards of known activity. […] To determine the rate of [^125I] iodide efflux from cells, uptake was performed as previously described.

[2] = system: NIS expressing human tumor xenograft of FaDu carcinoma cells; conditions: 4.2 Gy delivered to the tumor
Source text: To begin to address this issue, the inventors have established a method to estimate dosimetry based on gamma camera imaging of ^131I uptake and retention using a pinhole collimator. […] Data collected from the pinhole collimator gamma camera imaging has enabled us to calculate doses delivered to tumor xenografts and therefore to perform comparative dosimetry between different isotopes such as ^131I and ^188ReO4—.

[3] = system: hNIS stable expressing FaDu transfectants
Method: In Vivo Tumor Growth. […] Twenty-four hours later, cells were trypsinized, washed, and resuspended in PBS. […] After allowing 48 hours for engraftment of tumor cells, 1 mCi of [^131I] iodide was injected intraperitoneally into each mouse. Second, to assess the effects of genetically targeted radiotherapy on established tumors, 5×10^6 stably transfected NIS-expressing FaDu cells or their parental counterparts were injected subcutaneously into both flanks of athymic mice. The tumors were allowed to grow to an average tumor diameter of 5 mm and then 1 mCi of [^131I] iodide was injected intraperitoneally into each mouse. In both experiments, tumor sizes were recorded in three dimensions every 2 days. Average tumor diameters were determined by taking the cube root of tumor width×length×depth. The experiments were terminated when the average tumor diameter exceeded 10 mm. All animal studies were performed in accordance with the Public Health Service policy on Humane Care and Use of Laboratory Animals, the NIH Guide for the Care and Use of Laboratory Animals, and the Animal elfare Act (7 U.S.C. et seq.); the animal use protocol was approved by the Institutional Animal Care and Use Committee (IACUC) of the University of Iowa.

[4] = system: NIS-expressing F98 gliomas; conditions: rats bearing NIS-expressing F98 gliomas; cited from earlier work
[5] = target: T1, NIS; conditions: stably transfected cell lines; cited from earlier work
[6] = radionuclide half-life; cited from earlier work
[7] = system: NIS-expressing tumor tissue; experiment: Gamma camera imaging of 188ReO4 uptake in Ad-NIS injected tumor bearing mouse; type: in vivo; conditions: 2 hours after systemic administration
Source text: As discussed in detail below, the beta particle emitted from ^188Re is more energetic than that of ^131I and can travel a further distance in tissue, thus may be well suited to use in the context of larger tumors that are found in human head and neck cancer.

[8] = system: Ad-NIS infected cells; experiment: Iodide retention with recombinant LPO during the efflux period; type: cell-based; conditions: recombinant LPO present during efflux period, 2 hours of efflux
Source text: The inventors are also exploring other novel methods to enhance iodine retention in cells and, to this end, they have examined the effect of lactoperoxidase (LPO) on iodide organification and retention in NIS+ cell populations.

[9] = sixty days after [131I] iodide administration

## [Na+].[O-][Cl+3]([O-])([O-])[O-] [Perchlorate, sodium perchlorate]
[1]
  effect on NIS-mediated [125I] iodide accumulation: inhibited iodide accumulation; also recorded: inhibits NIS-mediated [^125I] iodide uptake

## [131I-].[Na+] [[^131I] iodide, sodium [^131I] iodide]
[2]
  tumor outcome at the delivered dose: remission of this tumor
[3]; NIS-FaDu established tumors (5 mm), 1 mCi [131I] iodide i.p.
  tumors with complete response (shrunk beyond the limit of detection): eight of eight
[3]; mice given 1 mCi [131I] iodide i.p.
  local adverse effects of radiotherapy: No local adverse effects
[3]; [9]
  tumors recurred: two
  tumors remaining in complete remission: six

## [O]=[Re](=[O])(=[O])[O-] [^188ReO4, Perrhenate]
[4]
  survival versus 131I treatment: increased survival
[5]
  in vitro uptake as compared to iodide: two- to three-fold higher
[6]
  t1/2: 16.9 h
[7]
  tissue accumulation of 188ReO4-: thyroid, stomach, and NIS-expressing tumor tissue, also display high affinity

## lactoperoxidase [LPO]
[8]
  cell-associated iodide during efflux: significantly longer retention times; also recorded: increased levels of cell-associated iodide

— patent US20060193832A1, “Use of the sodium iodine symporter to effect uptake of iodine” (priority 2005, published 2006)
